Laboratory results: patent US4042683A, “Rifamycins P, Q and U” (Gruppo Lepetit S.p.A., priority 1974, dated 1977)
≈ marks a conversion by molar mass, not a printed value. Read-outs that look alike come from different tables or passages of the source.

What was measured:
[1] = test system: Proteus vulgaris X 19 H ATCC 881; assay: in vitro activity spectrum, minimal inhibition concentration, Proteus vulgaris X 19 H ATCC 881; type: cell-based
Excerpt: (§1) | Minimal inhibiton concentration (μg/ml)

[2] = test system: Staphylococcus aureus ATCC 6538; assay: in vitro activity spectrum, minimal inhibition concentration, Staphylococcus aureus ATCC 6538; type: cell-based; details: for MIC: Staphylococcus aureus, read-out: Minimal inhibiton concentration
Excerpt: as §1

Staphylococcus aureus = assay: experiments on mice injected with Staphylococcus aureus; type: in vivo
Excerpt: The novel compounds are active also in the laboratory animals injected with Staphylococcus aureus, Escherichia coli. The following table reports the results of representative experiments on mice in comparison with a known natural rifamycin, i.e. rifamycin SV.

[3] = test system: Pseudomonas aeruginosa ATCC 10145; assay: in vitro activity spectrum, minimal inhibition concentration, Pseudomonas aeruginosa ATCC 10145; type: cell-based
Excerpt: as §1

[4] = test system: Klebsiella pneumoniae ATCC 10031; assay: in vitro activity spectrum, minimal inhibition concentration, Klebsiella pneumoniae ATCC 10031; type: cell-based
Excerpt: as §1

[5] = test system: Staphylococcus aureus Tour rifampicin-resistant; assay: in vitro activity spectrum, minimal inhibition concentration, Staphylococcus aureus Tour rifampicin-resistant
[6] = test system: Diplococcus pneumoniae UC 41; assay: in vitro activity spectrum, minimal inhibition concentration, Diplococcus pneumoniae UC 41; type: cell-based
Excerpt: as §1

[7] = test system: Streptococcus faecalis ATCC 10541; assay: in vitro activity spectrum, minimal inhibition concentration, Streptococcus faecalis ATCC 10541; type: cell-based
Excerpt: as §1

[8] = test system: Escherichia coli ATCC 10536; assay: in vitro activity spectrum, minimal inhibition concentration, Escherichia coli ATCC 10536; type: cell-based
Excerpt: as §1

[9] = test system: Mycobacterium tub. H37Rv ATCC 9360; assay: in vitro activity spectrum, minimal inhibition concentration, Mycobacterium tub. H37Rv ATCC 9360; type: cell-based
Excerpt: as §1

[10] = test system: Streptococcus hemolyticus C 203; assay: in vitro activity spectrum, minimal inhibition concentration, Streptococcus hemolyticus C 203; type: cell-based
Excerpt: as §1

[11] = test system: Staphylococcus aureus Tour; assay: in vitro activity spectrum, minimal inhibition concentration, Staphylococcus aureus Tour; type: cell-based
Excerpt: as §1

Bacillus Subtilis = assay: agar disc inhibition of growth of Bacillus subtilis; type: cell-based; details: Penassay agar pH 7.2, disc of agar carrying a single colony
Method: A suspension of spores of Streptomyces mediterranei ATCC 13685 was treated with N-methyl-N'-nitro-N-nitrosoguanidine at 1 mg/ml in a pH 9.0 tris(hydroxymethyl)aminomethane buffer for 60 minutes at 28° C. The mutagen-treated spores were then washed and plated onto Petri dishes containing Bennett agar. After 14 days incubation at 28° C., the surviving colonies were picked off and examined for their ability to inhibit the growth of Bacillus Subtilis in the following manner: a disc of agar (diameter 4-8 mm) carrying a single colony was transferred onto a Petri disch containing […] agar at pH 7.2 previously seeded at 2% (v/v) with Bacillus Subtilis. […] Three strains were isolated in this way and were originally given our internal code D-2, MM18-6 and M-36. Samples of these microorganisms were deposited with the ATCC where they are identified respectively as Nocardia mediterranea ATCC 31064 Nocardia mediterranea ATCC 31065 and Nocardia mediterranea ATCC 31066.

COC1/C=C\OC2(C)Oc3c(C)c(O)c4c(O)c(c5sc(CO)nc5c4c3C2=O)NC(=O)/C(C)=C/C=C/C(C)C(O)C(C)C(O)C(C)C(OC(C)=O)C1C (stereo not drawn) [Rifamycin Q]
Minimal inhibiton concentration [1]: 12.5 µg/mL (≈ 16.3 µM) | Minimal inhibiton concentration ([2]; Staphylococcus aureus ATCC 6538): 0.039 µg/mL (≈ 0.0507 µM) | Minimal inhibiton concentration ([2]; Staphylococcus aureus ATCC 6538 (20% bovine serum)): 0.078 µg/mL (≈ 0.101 µM) | ED50 (Staphylococcus aureus; s.c.): 8 mg/kg | Minimal inhibiton concentration [3]: 50 µg/mL (≈ 65 µM) | Minimal inhibiton concentration [4]: 50 µg/mL (≈ 65 µM) | Minimal inhibiton concentration ([5]; Staphylococcus aureus Tour rifampicin-resistant): > 100 µg/mL | Minimal inhibiton concentration [6]: 0.039 µg/mL (≈ 0.0507 µM) | Minimal inhibiton concentration [7]: 0.312 µg/mL (≈ 0.406 µM) | Minimal inhibiton concentration [8]: 12.5 µg/mL (≈ 16.3 µM) | Minimal inhibiton concentration [9]: 2.5 µg/mL (≈ 3.25 µM) | Minimal inhibiton concentration [10]: 0.019 µg/mL (≈ 0.0247 µM) | Minimal inhibiton concentration [11]: 0.06 µg/mL (≈ 0.078 µM)

COC1C=COC2(C)Oc3c(C)c(O)c4c(c3C2=O)C(=O)C=C(NC(=O)C(CO)=CC=CC(C)C(O)C(C)C(O)C(C)C(OC(C)=O)C1C)C4=O (stereo not drawn) [Rifamycin R]
MIC ([1]; ATCC881, read-out: Minimal inhibiton concentration): 12.5 µg/mL (≈ 17.6 µM) | MIC ([2]; ATCC6538, Staphylococcus aureus ATCC 6538 (20% bovine serum)): 0.0047 µg/mL (≈ 0.0066 µM) | MIC ([2]; ATCC6538, Staphylococcus aureus ATCC 6538): 0.019 µg/mL (≈ 0.0267 µM) | MIC ([3]; ATCC10145, read-out: Minimal inhibiton concentration): 100 µg/mL (≈ 140 µM) | MIC ([5]; Staphylococcus aureus, read-out: Minimal inhibiton concentration): 100 µg/mL (≈ 140 µM) | MIC ([6]; Streptococcus pneumoniae, UC41, read-out: Minimal inhibiton concentration): 0.00625 µg/mL (≈ 0.00878 µM) | MIC ([7]; Enterococcus faecalis, ATCC10541, read-out: Minimal inhibiton concentration): 0.19 µg/mL (≈ 0.267 µM) | MIC ([8]; ATCC10536, read-out: Minimal inhibiton concentration): 50 µg/mL (≈ 70.2 µM) | MIC ([9]; Mycobacterium tuberculosis, read-out: Minimal inhibiton concentration): 0.1 µg/mL (≈ 0.14 µM) | MIC ([10]; Streptococcus pyogenes, C203, read-out: Minimal inhibiton concentration): 0.00312 µg/mL (≈ 0.00438 µM) | MIC ([11]; read-out: Minimal inhibiton concentration): 0.00235 µg/mL (≈ 0.0033 µM)

COC1C=COC2(C)Oc3c(C)c(O)c4c(O)c(cc(OCC(=O)O)c4c3C2=O)NC(=O)C(C)=CC=CC(C)C(O)C(C)C(O)C(C)C(OC(C)=O)C1C (stereo not drawn) [rifamycin B]
inhibition of the growth of Bacillus subtilis (Bacillus Subtilis): practically inactive

CO[C@H]1/C=C/O[C@@]2(C)Oc3c(C)c(O)c4c(O)c(cc(O)c4c3C2=O)NC(=O)/C(C)=C\C=C\[C@H](C)[C@H](O)[C@@H](C)[C@@H](O)[C@@H](C)[C@H](OC(C)=O)[C@@H]1C [rifamycin SV]
ED50 (Staphylococcus aureus; po, o.s., read-out: ED50): 74 mg/kg | ED50 (Staphylococcus aureus; sc, read-out: ED50): 17 mg/kg
